Measured values published in ChEMBL document CHEMBL3885861, “Open TG-GATES”.

Organism: Rattus norvegicus
Test: Open TG-GATES - Regimen: Single
Type: toxicity, organism-based, Sprague-Dawley
Parameters: regimen Single, gender Male, age 6 weeks
Details: in vivo, po, 30 mg/kg, route gavage, dose level High; for APTT / Bas / Eos / Fbg / Hb / Ht / Lym / MCH / MCHC / MCV / Mono / Neu / PT / Plat / RBC / Ret / WBC: tissue Blood; for KIDNEY_L / KIDNEY_R / KIDNEY_TOTAL: tissue Kidney; for LIVER: tissue Liver; for A/G / ALP / ALT / AST / BUN / CRE / Ca / Cl / DBIL / GLC / IP / K / LDH / Na / PL / RALB / TBIL / TC / TG / TP / gamma-GTP: tissue Plasma

## Cn1cnc([N+](=O)[O-])c1Sc1ncnc2nc[nH]c12 [AZATHIOPRINE]
3 h
  TERMINAL_BW: 191.2 g
  APTT: 22.3 s
  Bas: 0%
  Eos: 1%
  Fbg: 297.8 mg/dL
  Hb: 13.1 g/dL
  Ht: 39.1%
  Lym: 71.8%
  MCH: 21.6 pg
  MCHC: 33.5%
  MCV: 64.6 fL
  Mono: 1.8%
  Neu: 24.6%
  PT: 15.5 s
  Plat: 118.4 x10_4/uL
  RBC: 605.8 x10_4/ul
  Ret: 9.2%
  WBC: 56 x10_2/uL
  KIDNEY_L: 0.9 g
  KIDNEY_R: 0.9 g
  KIDNEY_TOTAL: 1.7 g
  LIVER: 8.5 g
  A/G: 1.2
  ALP: 1649.8 IU/L
  ALT: 41.6 IU/L
  AST: 73.2 IU/L
  BUN: 10.6 mg/dL
  CRE: 0.1 mg/dL
  Ca: 10.3 mg/dL
  Cl: 104.8 meq/L
  DBIL: 0.004 mg/dL
  GLC: 182.8 mg/dL
  IP: 9 mg/dL
  K: 4 meq/L
  LDH: 171.8 IU/L
  Na: 143.2 meq/L
  PL: 138.4 mg/dL
  RALB: 3 g/dL
  TBIL: 0.01 mg/dL
  TC: 80.4 mg/dL
  TG: 47.6 mg/dL
  TP: 5.4 g/dL
  gamma-GTP: 1 IU/L
6 h
  TERMINAL_BW: 192.3 g
  APTT: 21 s
  Bas: 0%
  Eos: 0.8%
  Fbg: 311.8 mg/dL
  Hb: 13.2 g/dL
  Ht: 39.6%
  Lym: 71.4%
  MCH: 21.5 pg
  MCHC: 33.3%
  MCV: 64.8 fL
  Mono: 2.2%
  Neu: 25%
  PT: 15.5 s
  Plat: 120.3 x10_4/uL
  RBC: 612.2 x10_4/ul
  Ret: 9%
  WBC: 54.6 x10_2/uL
  KIDNEY_L: 0.9 g
  KIDNEY_R: 0.9 g
  KIDNEY_TOTAL: 1.8 g
  LIVER: 7.9 g
  A/G: 1.1
  ALP: 1635.4 IU/L
  ALT: 36.4 IU/L
  AST: 69.8 IU/L
  BUN: 9.8 mg/dL
  CRE: 0.2 mg/dL
  Ca: 10.6 mg/dL
  Cl: 104.8 meq/L
  DBIL: 0.002 mg/dL
  GLC: 187.4 mg/dL
  IP: 9.1 mg/dL
  K: 4.4 meq/L
  LDH: 221 IU/L
  Na: 141.2 meq/L
  PL: 127.2 mg/dL
  RALB: 2.9 g/dL
  TBIL: 0.008 mg/dL
  TC: 73.4 mg/dL
  TG: 44.6 mg/dL
  TP: 5.5 g/dL
  gamma-GTP: 1 IU/L
9 h
  TERMINAL_BW: 184.1 g
  APTT: 22 s
  Bas: 0%
  Eos: 0.8%
  Fbg: 328.4 mg/dL
  Hb: 12.7 g/dL
  Ht: 38.7%
  Lym: 74.4%
  MCH: 21.3 pg
  MCHC: 32.9%
  MCV: 64.9 fL
  Mono: 2.8%
  Neu: 20.6%
  PT: 15.5 s
  Plat: 102.9 x10_4/uL
  RBC: 598 x10_4/ul
  Ret: 9.2%
  WBC: 79 x10_2/uL
  KIDNEY_L: 0.8 g
  KIDNEY_R: 0.9 g
  KIDNEY_TOTAL: 1.7 g
  LIVER: 7.5 g
  A/G: 1.2
  ALP: 1634.6 IU/L
  ALT: 35.4 IU/L
  AST: 77 IU/L
  BUN: 11.4 mg/dL
  CRE: 0.1 mg/dL
  Ca: 10.5 mg/dL
  Cl: 106 meq/L
  DBIL: 0.002 mg/dL
  GLC: 190 mg/dL
  IP: 9.4 mg/dL
  K: 4.5 meq/L
  LDH: 231.8 IU/L
  Na: 140.8 meq/L
  PL: 140.2 mg/dL
  RALB: 2.9 g/dL
  TBIL: 0.01 mg/dL
  TC: 85.8 mg/dL
  TG: 37.2 mg/dL
  TP: 5.4 g/dL
  gamma-GTP: 1.2 IU/L
24 h
  TERMINAL_BW: 199.8 g
  APTT: 19.8 s
  Bas: 0%
  Eos: 0.8%
  Fbg: 345.2 mg/dL
  Hb: 13 g/dL
  Ht: 38.7%
  Lym: 86%
  MCH: 21.7 pg
  MCHC: 33.6%
  MCV: 64.6 fL
  Mono: 1.8%
  Neu: 10.4%
  PT: 15 s
  Plat: 125.5 x10_4/uL
  RBC: 599 x10_4/ul
  Ret: 7.7%
  WBC: 68.5 x10_2/uL
  KIDNEY_L: 0.9 g
  KIDNEY_R: 0.9 g
  KIDNEY_TOTAL: 1.8 g
  LIVER: 9.1 g
  A/G: 1.2
  ALP: 1513.8 IU/L
  ALT: 44.2 IU/L
  AST: 73.6 IU/L
  BUN: 15.4 mg/dL
  CRE: 0.1 mg/dL
  Ca: 11.1 mg/dL
  Cl: 105.2 meq/L
  DBIL: 0 mg/dL
  GLC: 190.8 mg/dL
  IP: 7.6 mg/dL
  K: 4.2 meq/L
  LDH: 210.4 IU/L
  Na: 142 meq/L
  PL: 161.2 mg/dL
  RALB: 3.1 g/dL
  TBIL: 0.014 mg/dL
  TC: 102.6 mg/dL
  TG: 39.4 mg/dL
  TP: 5.7 g/dL
  gamma-GTP: 1.4 IU/L
